Experimental data published in patent US9547001B2, “Antibody specific for trans-resveratrol and use thereof” (IP Science Limited, priority 2011, dated 2017).
Where “and” joins values, the source holds several entries; their conditions need not be identical. Identical values can stand only once.

What was measured:
Assay type in all cases: in vivo
[1] = HPLC-MS measurement of tRV in human serum after 1 mg tRV in 200 ml red wine (wine study); details: sum of 1 h + 2 h + 4 h + 6 h + 8 h, one value per volunteer
Method: The same volunteers also participated in a wine study. The same “wash out” period was used, and the same timing of the experiment was applied. Instead of taking a capsule of tRV each of the volunteers consumed 200 ml of red wine, which was selected on a basis that it would contain 1 mg of tRV in this volume. The rest of the Protocol employed was the same as above.
After taking blood, serum was separated, aliquoted and stored at −80° C. for further testing.

[2] = anti-tRV ELISA measurement of tRV in human serum after 100 mg tRV capsule (nutraceutical study)
Method: (§1) 2 ml of ethyl acetate was added to 0.5 ml of serum sample, then mixed on a vortex for 3 minutes, followed by centrifugation for 2 minutes at 500 r/min. The upper layer of ethyl acetate was transferred into a new tube. To the remaining lower water fraction a second portion of 2 ml ethyl acetate was added and the extraction procedure was repeated. The new ethyl acetate fraction was added to the old one, giving a total volume of 4 ml, which was then dried by air flow at 60° C., using a Reacti-Therm™III, Thermo scientific, USA.[…]. 40 μl of ethanol was then added and mixed on vortex, then 160 μl of PBS with 0.5% BSA was added and mixed again. This final solution was used for the analysis described below.
RV-BSA was pre-absorbed on microplate wells in 0.1M carbonate buffer, pH=9.5 (at a concentration of 5 μg/ml) overnight at 4° C. After washing four times the PBST plate was blocked with PBS contacting 1% of Top Block (<<Yuro>>, Switzerland).
For the calibrating curve different concentrations of tRV were added into the wells. The stock solution used was 1 mg/ml of tRV diluted in PBST with 0.5% BSA and 20% ethanol. 50 μl of each serum extract to be tested were added to parallel wells. After which 50 μl of the conjugate of HRP with monoclonal anti-tRV antibodies was added to all the wells. The content of the wells was mixed using a shaker for 1 minute and then the plate was then incubated for 1 hour at +37° C.
(§2) The plate was washed out four times with PBST, and then a chromogeninc substrate was added, tetramethylbenzidine+H2O2. After stopping the reaction with 1M H2SO4, optic density was read at λ450 nm, Multiscan EX (<<Thermo>>, USA).
Inhibition by free tRV of the binding of serum antibodies with immobolised RV-BSA (Kin) was calculated according to the following formula: Kin=100−(A450D/A450C−)×100, where: • A450D is the optic density in samples with free tRV (testing serum or samples from the calibrating curve), • A450 C is the an optic density without free tRV.
(§3) The group of 5 volunteers comprised of 2 female and 3 male clinically healthy Caucasian persons, age between 23 and 35 years.
(§4) They were asked, before commencing this experiment, to go for 3-4 days “wash-out”, when consumption of any grape, wine, peanut, chocolate and other products which might contain them.
(§5) In the morning of the experiment, one hour after light breakfast, volunteers were given 1 gelatine capsule containing 100 mg of tRV.
(§6) Blood samples were taken from their median cubital or cephalic veins at the baseline point. Then, after administration of tRV, their blood was taken again at the following time points: 30 minutes, 1 hour, 2, 3, 4, 6 and 8 hours.
(§7) After taking blood its serum was separated, aliquoted and stored at −80° C. for further testing.

[3] = HPLC-MS measurement of tRV in human serum after 100 mg tRV capsule (nutraceutical study)
Method: as §3, §4, §5, §6, §7

[4] = anti-tRV ELISA measurement of tRV in human serum after 1 mg tRV in 200 ml red wine (wine study); details: sum of 1 h + 2 h + 4 h + 6 h + 8 h, one value per volunteer
Method: as §1
RV-BSA was pre-absorbed on microplate wells in 0.1M carbonate buffer, pH=9.5 (at a concentration of 5 μg/ml) overnight at 4° C. […]
as §2
Inhibition by free tRV of the binding of serum antibodies with immobolised RV-BSA (Kin) was calculated according to the following formula: Kin=100−(A450D/A450C−)×100, where: • A450D is the optic density in samples with free tRV (testing serum or samples from the calibrating curve), • A450 C is the an optic density without free tRV. […]

[5] = 1 h after 100 mg tRV, volunteers 1 and 2
[6] = 2 h after 100 mg tRV, volunteers 1 and 2
[7] = human serum, 100 mg tRV dietary supplement, sum of 30 min + 1 h + 2 h + 3 h + 4 h + 6 h + 8 h, one value per volunteer
[8] = human, serum, oral, 100 mg, 1 h after 100 mg tRV, volunteers 1 and 2
[9] = human, serum, oral, 100 mg, 2 h after 100 mg tRV, volunteers 1 and 2

**Q.** For Oc1ccc(/C=C/c2cc(O)cc(O)c2)cc1 [tRV, trans-Resveratrol], which “Concentration of tRV in serum as a sum of 5 separate measurements, HPLC-MS” value [1] is on record?
**A.** Its value is 6 ng/ml and 572 ng/ml and 0 ng/ml (3×).

**Q.** What about the “Concentration of tRV in serum, ELISA” value ([2]; 30 min after 100 mg tRV, volunteers 1 and 2) of the same molecule?
**A.** Its value is 90 ng/mL.

**Q.** And the “Concentration of tRV in serum, ELISA” value [2, 5]?
**A.** The value was 490 ng/mL.

**Q.** And the “Concentration of tRV in serum, ELISA” value [2, 6]?
**A.** Its value is 255 ng/mL.

**Q.** And the “Concentration of tRV in serum, ELISA” value ([2]; 3 h after 100 mg tRV, volunteers 1 and 2)?
**A.** The value was 10 ng/mL.

**Q.** What about the “Concentration of tRV in serum, ELISA” value ([2]; 4 h after 100 mg tRV, volunteers 1 and 2) of the same molecule?
**A.** The value was 195 ng/mL.

**Q.** And the “Concentration of tRV in serum, ELISA” value ([2]; 6 h after 100 mg tRV, volunteers 1 and 2)?
**A.** Its value is 620 ng/mL.

**Q.** What about the “Concentration of tRV in serum as a sum of 7 separate measurements, ELISA” value [2, 7] of the same molecule?
**A.** The value was 1600 ng/mL and 1900 ng/mL and 1070 ng/mL and 795 ng/mL and 1412 ng/mL.

**Q.** And the concentration at 30 min ([2]; human, serum, oral, 100 mg, 30 min after 100 mg tRV, volunteers 1 and 2)?
**A.** Its concentration at 30 min is 140 ng/mL.

**Q.** And the concentration at 1 h [2, 8]?
**A.** Its concentration at 1 h is 650 ng/mL.

**Q.** What about the concentration at 2 h [2, 9] of the same molecule?
**A.** The concentration at 2 h was 210 ng/mL.

**Q.** And the concentration at 3 h ([2]; human, serum, oral, 100 mg, 3 h after 100 mg tRV, volunteers 1 and 2)?
**A.** The concentration at 3 h was 20 ng/mL.

**Q.** And the concentration at 4 h ([2]; human, serum, oral, 100 mg, 4 h after 100 mg tRV, volunteers 1 and 2)?
**A.** Its concentration at 4 h is 135 ng/mL.

**Q.** And the concentration at 6 h ([2]; human, serum, oral, 100 mg, 6 h after 100 mg tRV, volunteers 1 and 2)?
**A.** The concentration at 6 h was 420 ng/mL.

**Q.** What about the “Concentration of tRV in serum, HPLC-MS” value [3, 5] of the same molecule?
**A.** Its value is 97 ng/mL.

**Q.** And the “Concentration of tRV in serum, HPLC-MS” value [3, 6]?
**A.** The value was 21 ng/mL.

**Q.** And the “Concentration of tRV in serum as a sum of 7 separate measurements, HPLC-MS” value [3, 7]?
**A.** The value was 98 ng/mL and 139 ng/mL and 79 ng/mL and 37 ng/mL and 107 ng/mL.

**Q.** What about the concentration at 1 h [3, 8] of the same molecule?
**A.** Its concentration at 1 h is 65 ng/mL.

**Q.** What about the concentration at 2 h [3, 9] of the same molecule?
**A.** The concentration at 2 h was 12 ng/mL.

**Q.** What about the “Concentration of tRV in serum as a sum of 5 separate measurements, ELISA” value [4] of the same molecule?
**A.** Its value is 310 ng/mL and 850 ng/mL and 120 ng/mL and 460 ng/mL and 380 ng/mL.
